In patent US20130029909A1, “TREATMENT OF CANCER” (priority 2009, published 2013):
Read-outs that look alike come from different tables or passages of the source.

Experiments:
[1] = tested on: human ovarian carcinoma A2780 cells; conditions: 72 h, MTS
Description: The human ovarian carcinoma A2780 cells were obtained from the American Type Culture Collection. […] The medium was replaced with fresh medium containing the test compound at concentrations ranging from 0.01 nmol/L to 1 μmol/L. Triplicate wells per plate were treated at each concentration. Controls were vehicle-treated cells and medium only blank. […] MTS assay reagent was prepared by diluting CellTiter 96 AQueous One Solution (Promega) 5-fold into PBS/glucose (4.5 g/L). Cell culture medium was aspirated and 100 μL of MTS reagent were added to each well. Plates were incubated at 37° C. for 1 h. The plates were shaken for 5 min and the absorbance was measured at 485 nm using a [sequence]uor Plus plate reader (Tecan). The percentage of cell survival was calculated relative to untreated cells, and IC50s were estimated from the graphs of log dose (nmol/L) versus % cell survival (GraphPad Prizm).

H1299 cells [2] = test: H1299 human NSCLC xenograft model in nu/nu mice; conditions: for tumor-free survival (TFS): 74 days post first treatment, CRLX101 10 mg/kg qwk×3, gemcitabine 120 mg/kg q3d×4, topotecan 12 mg/kg q4d×3; for median tumor volume (MTV) of survivors: D74, gemcitabine 120 mg/kg (five TFS), docetaxel 30 mg/kg (two D74 survivors)
Description: (§1) Animals were randomly divided into seven groups and treatment was started on day-15 post implantation, when the mean tumor volume was approximately 115 mm^3.
(§2) Body weight was measured daily on Days 1-5, then twice weekly until the completion of the study. Tumor volume was measured twice weekly and each animal was euthanized when the calculated tumor volume reached the 2000 mm^3 endpoint, or on day-88 post implantation, whichever came first.

H1299 cells [3] = conditions: mouse, in vivo
Description: as §1, §2

Compound | tumor-free survival (TFS) (H1299 cells [2]) | BW Nadir (lowest group mean body weight, as % change from Day 1) (H1299 cells [3]) | median tumor volume (MTV) of survivors (H1299 cells [2]) | also measured
CCc1c2c(nc3ccc(O)cc13)-c1cc3c(c(=O)n1C2)COC(=O)[C@]3(O)CC [SN-38, 20(S)-7-ethyl-10-hydroxycamptothecin] | – | – | – | IC50 [1]: 2.44 nM
CC[C@@]1(O)C(=O)OCc2c1cc1n(c2=O)Cc2cc3c(CN(C)C)c(O)ccc3nc2-1 [Topotecan, topotecan] | 10% | −0.6% | – | –
Nc1ccn([C@@H]2O[C@H](CO)[C@@H](O)C2(F)F)c(=O)n1 [Gemcitabine, gemcitabine] | 50% | −2.3% | 0 mm3 | –
CC(=O)O[C@@]12CO[C@@H]1C[C@H](O)[C@@]1(C)C(=O)[C@H](O)C3=C(C)[C@@H](OC(=O)[C@H](O)[C@@H](NC(=O)OC(C)(C)C)c4ccccc4)C[C@@](O)([C@@H](OC(=O)c4ccccc4)[C@H]21)C3(C)C [Docetaxel, docetaxel] | – | – | 302 mm3 | group mean body weight loss (H1299 cells [2]; docetaxel 30 mg/kg on D21): 9.3%; survival (H1299 cells [2]; docetaxel 30 mg/kg qwk×3, D74, no TFS): 20%; BW Nadir (lowest group mean body weight, as % change from Day 1) (H1299 cells [2]; same regimens as E168, '—' indicates that no decrease in mean body weight was observed): −9.3%
C#Cc1cccc(Nc2ncnc3cc(OCCOC)c(OCCOC)cc23)c1 [Erlotinib, erlotinib] | – | −2.9% | – | –
